Columns and labels:
[1] = target: T1, GL-7-ACA acylase of P. nitroreducens ATCC 33634 (Pseudomonas nitroreducens, UniProt E0D5C2); assay: Effect of various inhibitors on the acylase activity; assay type: biochemical
T1 construct: periplasmic
T1 sequence (E0D5C2 24-556): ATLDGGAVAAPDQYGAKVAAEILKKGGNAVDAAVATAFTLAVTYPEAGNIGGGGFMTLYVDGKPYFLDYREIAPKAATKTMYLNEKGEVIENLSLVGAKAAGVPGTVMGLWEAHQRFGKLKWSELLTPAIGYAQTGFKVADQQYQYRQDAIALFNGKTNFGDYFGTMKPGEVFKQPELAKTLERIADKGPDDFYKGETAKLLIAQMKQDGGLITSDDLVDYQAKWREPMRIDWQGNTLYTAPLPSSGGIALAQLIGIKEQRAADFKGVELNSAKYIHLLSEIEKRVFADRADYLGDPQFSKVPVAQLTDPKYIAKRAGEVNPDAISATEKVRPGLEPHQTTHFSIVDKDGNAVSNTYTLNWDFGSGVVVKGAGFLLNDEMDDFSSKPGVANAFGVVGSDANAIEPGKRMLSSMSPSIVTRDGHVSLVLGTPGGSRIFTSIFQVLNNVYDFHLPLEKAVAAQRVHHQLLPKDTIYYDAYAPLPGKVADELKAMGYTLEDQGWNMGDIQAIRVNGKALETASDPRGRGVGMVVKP
T1 sequence (E0D5C2 25-556 partner): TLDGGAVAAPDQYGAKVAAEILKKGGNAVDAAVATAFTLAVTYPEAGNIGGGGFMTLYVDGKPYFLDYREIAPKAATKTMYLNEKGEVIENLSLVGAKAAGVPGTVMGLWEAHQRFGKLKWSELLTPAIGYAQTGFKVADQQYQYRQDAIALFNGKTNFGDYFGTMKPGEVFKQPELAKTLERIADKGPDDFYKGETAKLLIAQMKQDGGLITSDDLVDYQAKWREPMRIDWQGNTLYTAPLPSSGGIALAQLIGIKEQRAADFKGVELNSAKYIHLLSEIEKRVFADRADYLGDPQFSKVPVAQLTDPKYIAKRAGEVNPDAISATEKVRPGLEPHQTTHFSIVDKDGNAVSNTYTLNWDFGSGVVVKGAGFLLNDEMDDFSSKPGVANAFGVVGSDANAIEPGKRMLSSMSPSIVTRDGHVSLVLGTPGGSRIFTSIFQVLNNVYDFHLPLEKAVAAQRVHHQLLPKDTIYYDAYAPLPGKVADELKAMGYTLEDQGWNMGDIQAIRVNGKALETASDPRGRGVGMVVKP
Description: It has been reported that the activity of GL-7-ACA acylases can be inhibited by their own products, e.g., 7-ACA and glutaric acid. Thus, the inhibitory effects of various compounds on the present acylase were tested (Table 4). The compounds were 7-ACA, glutaric acid, glutamate, succinyl-7-ACA, and Ceph C, all of which were used at 20 mM.

[2] = target: T1, GL-7-ACA acylase of P. nitroreducens ATCC 33634; assay: Substrate profile of GL-7-ACA acylase, whole cells of ATCC 33634; assay type: biochemical; settings: for activity as substrate, in words: cells of ATCC 33634, compared with GL-7-ACA; for relative activity (percentage relative to the activity for GL7-ACA): whole cells of ATCC 33634, 0.2 g/l substrate, 37° C., 3 hr
Description: (§1) Colonies forming clear zones were cultivated in Nutrient Broth (Difco, Detroit, Mich.) and tested for GL-7-ACA acylase activity as described by Shibuya et al. (Agric. Biol. Chem. 45: 1561-1567, 1981). The whole-cell suspension of ATCC 33634 in 100 mM acetate buffer (pH 5.0) was used as the acylase source. One unit of the acylase activity was defined as the amount of enzyme that liberates 1 μmole of […] per min.
Cells of ATCC 33634 were used to convert GL-7-ACA and related compounds (Table 2). GL-7-ACA, GL-7-ADCA, and succinyl-7-ACA were prepared according to the method of Shibuya et al. (Agric. Biol. Chem. 45: 1561-1567, 1981).
^a The relative GL7-ACA acylase activity was presented as percentage
relative to the activity for GL7-ACA. Whole cells of ATCC 33634 were
incubated with 0.2 g/l of GL7-ACA, GL7-ADCA, succinyl 7ACA, or Ceph C at […]

[3] = system: P. nitroreducens ATCC 33634; assay: Effect of composition of media on production of GL-7-ACA acylase; assay type: cell-based, Pseudomonas nitroreducens
Description: as §1
To obtain the optimal medium for P. nitroreducens ATCC 33634 cultivation, various media were tested according to the report of Nikolov and Danielsson (Enzyme Microbiol. Technol. 16: 1031-1036, 1994) (Table 1). The cultivation was carried out in 500 ml flasks containing 100 ml of media (Table 1) at 30° C. and 150 rpm for 24 hr. All media were adjusted to pH 7.5 before autoclaving. Yeast extract, casein, peptone, and meat extract were purchased from Difco Laboratories Inc. (Detroit, Mich.).

SMILES	activity as substrate, in words [2]	relative activity (percentage relative to the activity for GL7-ACA) [2]	further results
CC(=O)OCC1=C(C(=O)O)N2C(=O)[C@@H](N)[C@H]2SC1 [7-ACA, 7-Aminocephalosporanic acid]	–	–	inhibitory effect, in words ([1]; compounds used at 20 mM): strongest inhibitory effects
CC(=O)OCC1=C(C(=O)O)N2C(=O)[C@@H](NC(=O)CCC[C@@H](N)C(=O)O)[C@H]2SC1 [Ceph C, cephalosporin C]	No activity was detected	not detected	–
CC(=O)OCC1=C(C(=O)O)N2C(=O)[C@@H](NC(=O)CCCC(=O)O)[C@H]2SC1 [GL-7-ACA, glutaryl-7-aminocephalo-sporanic acid]	–	100%	–
CC1=C(C(=O)O)N2C(=O)[C@@H](NC(=O)CCCC(=O)O)[C@H]2SC1 [GL-7-ADCA, glutaryl-desacetoxy-7-aminocephalosporanic acid]	nearly three times more activity	294%	–
N[C@@H](CCC(=O)O)C(=O)O [Glutamate, glutamate]	–	–	Relative activity (%) of acylase with inhibitor [1]: < 1%
O=C(O)CCCC(=O)O [Glutaric acid, glutaric acid]	–	–	inhibition of the enzyme activity ([3]; glutaric acid at 0.12%): up to 50%; induction of GL-7-ACA acylase activity ([3]; in ATCC 33634): did not induce; lowest concentration that inhibited the acylase activity ([3]; in ATCC 33634): 0.02%
CC(=O)OCC1=C(C(=O)O)N2C(=O)[C@@H](NC(=O)CCC(=O)O)[C@H]2SC1 [Succinyl-7ACA, succinyl-7-ACA]	No activity was detected	not detected	–

— US5766871A, “Screening and characterization of glutaryl-7-aminocephalosporanic acid acylase” (priority 1996, dated 1998)
